Measurements published in US20250312462A1, “PAK1 DEGRADERS AND METHODS OF USE THEREOF” (INSTITUTE FOR CANCER RESEARCH D/B/A THE RESEARCH INSTITUTE …, priority 2022, published 2025).

Assays:
Test in all cases: KINOMEscan
Details in all cases: read-out: Percent Control
MST1R = MST1R (Homo sapiens, UniProt Q04912)
Experimental: (§1) The kinase engagement assay (KINOMEscan®) was performed by DiscoverX assessing binding abilities toward a set of kinases.

[1] = molecular target: ABL1(Q252H)-nonphosphorylated (Homo sapiens, UniProt P00519, Q252H)
Experimental: as §1

LCK = LCK (Homo sapiens, UniProt P06239)
Experimental: as §1

NIK = NIK (Homo sapiens, UniProt Q99558)
Experimental: as §1

DAPK2 = DAPK2 (Homo sapiens, UniProt Q9UIK4)
Experimental: as §1

[2] = molecular target: RPS6KA5(Kin.Dom.1-N-terminal) (Homo sapiens, UniProt O75582)
Experimental: as §1

MKNK2 = MKNK2 (Homo sapiens, UniProt Q9HBH9)
Experimental: as §1

PKN1 = PKN1 (Homo sapiens, UniProt Q16512)
Experimental: as §1

EGFR(G719C) = EGFR(G719C) (Homo sapiens, UniProt P00533, G719C)
Experimental: as §1

MST3 = MST3 (Homo sapiens, UniProt Q9Y6E0)
Experimental: as §1

[3] = molecular target: JAK1(JH2domain-pseudokinase) (Homo sapiens, UniProt P23458)
Experimental: as §1

MST1 = MST1 (Homo sapiens, UniProt Q13043)
Experimental: as §1

HASPIN = HASPIN (Homo sapiens, UniProt Q8TF76)
Experimental: as §1

PIP5K1A = PIP5K1A (Homo sapiens, UniProt Q99755)
Sequence of PIP5K1A (Q99755 whole entry): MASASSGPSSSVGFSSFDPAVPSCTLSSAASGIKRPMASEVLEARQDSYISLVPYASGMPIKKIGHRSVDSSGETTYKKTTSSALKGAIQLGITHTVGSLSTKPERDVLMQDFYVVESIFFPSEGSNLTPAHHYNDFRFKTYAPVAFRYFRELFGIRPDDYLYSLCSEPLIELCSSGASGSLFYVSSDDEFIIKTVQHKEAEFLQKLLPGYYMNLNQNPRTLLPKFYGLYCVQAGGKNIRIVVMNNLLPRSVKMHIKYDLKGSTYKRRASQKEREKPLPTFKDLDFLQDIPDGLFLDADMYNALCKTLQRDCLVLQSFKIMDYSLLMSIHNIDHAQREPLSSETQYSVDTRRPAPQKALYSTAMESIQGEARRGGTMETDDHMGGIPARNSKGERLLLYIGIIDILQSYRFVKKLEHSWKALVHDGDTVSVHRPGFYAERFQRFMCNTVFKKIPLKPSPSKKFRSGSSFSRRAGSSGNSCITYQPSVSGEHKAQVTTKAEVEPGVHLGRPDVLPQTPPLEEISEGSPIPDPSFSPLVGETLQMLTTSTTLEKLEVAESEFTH
Experimental: as §1

TAOK3 = TAOK3 (Homo sapiens, UniProt Q9H2K8)
Experimental: as §1

MUSK = MUSK (Homo sapiens, UniProt O15146)
Experimental: as §1

CDKL2 = CDKL2 (Homo sapiens, UniProt Q92772)
Experimental: as §1

MEK6 = MEK6 (Homo sapiens, UniProt P52564)
Sequence of MEK6 (P52564 whole entry): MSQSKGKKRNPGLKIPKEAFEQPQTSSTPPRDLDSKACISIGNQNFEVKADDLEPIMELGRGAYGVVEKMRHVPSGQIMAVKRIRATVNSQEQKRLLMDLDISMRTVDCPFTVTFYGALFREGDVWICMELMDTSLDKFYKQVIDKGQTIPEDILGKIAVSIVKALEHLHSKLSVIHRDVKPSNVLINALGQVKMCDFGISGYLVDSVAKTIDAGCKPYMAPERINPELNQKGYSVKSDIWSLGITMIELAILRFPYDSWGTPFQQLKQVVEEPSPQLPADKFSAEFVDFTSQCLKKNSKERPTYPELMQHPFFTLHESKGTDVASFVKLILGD
Experimental: as §1

JNK1 = JNK1 (Homo sapiens, UniProt P45983)
Sequence of JNK1 (P45983 whole entry): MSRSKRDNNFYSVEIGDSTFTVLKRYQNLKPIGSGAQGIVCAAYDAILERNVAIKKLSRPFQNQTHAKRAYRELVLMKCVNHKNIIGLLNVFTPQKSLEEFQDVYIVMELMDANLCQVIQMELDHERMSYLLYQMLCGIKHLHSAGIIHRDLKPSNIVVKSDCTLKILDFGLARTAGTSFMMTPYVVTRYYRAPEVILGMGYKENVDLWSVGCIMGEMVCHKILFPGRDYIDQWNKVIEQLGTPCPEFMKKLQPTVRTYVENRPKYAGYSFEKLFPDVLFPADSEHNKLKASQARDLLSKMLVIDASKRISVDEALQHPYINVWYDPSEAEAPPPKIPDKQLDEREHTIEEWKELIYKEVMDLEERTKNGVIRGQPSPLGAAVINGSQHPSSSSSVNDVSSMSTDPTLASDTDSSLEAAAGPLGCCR
Experimental: as §1

CDK4-cyclinD1 = CDK4-cyclinD1 (Homo sapiens, UniProt P11802)
Experimental: as §1

CAMK2B = CAMK2B (Homo sapiens, UniProt Q13554)
Sequence of CAMK2B (Q13554 whole entry): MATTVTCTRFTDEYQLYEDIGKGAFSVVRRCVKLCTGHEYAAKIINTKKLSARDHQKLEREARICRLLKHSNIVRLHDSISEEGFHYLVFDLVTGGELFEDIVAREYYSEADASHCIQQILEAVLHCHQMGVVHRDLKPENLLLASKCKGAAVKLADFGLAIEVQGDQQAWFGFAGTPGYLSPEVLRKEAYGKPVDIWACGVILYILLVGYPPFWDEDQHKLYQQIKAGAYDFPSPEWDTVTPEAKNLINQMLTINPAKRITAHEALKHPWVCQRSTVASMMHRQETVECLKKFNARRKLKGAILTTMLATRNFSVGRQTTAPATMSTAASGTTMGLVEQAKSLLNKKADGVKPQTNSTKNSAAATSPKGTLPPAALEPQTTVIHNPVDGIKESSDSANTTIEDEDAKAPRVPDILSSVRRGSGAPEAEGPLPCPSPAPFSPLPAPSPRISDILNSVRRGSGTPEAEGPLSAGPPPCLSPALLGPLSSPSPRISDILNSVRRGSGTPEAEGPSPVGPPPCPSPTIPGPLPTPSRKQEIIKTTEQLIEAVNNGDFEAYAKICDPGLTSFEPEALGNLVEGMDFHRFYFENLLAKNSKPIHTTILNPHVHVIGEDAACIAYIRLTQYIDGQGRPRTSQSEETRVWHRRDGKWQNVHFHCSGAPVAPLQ
Experimental: as §1

SIK = SIK (Homo sapiens, UniProt P57059)
Sequence of SIK (P57059 whole entry): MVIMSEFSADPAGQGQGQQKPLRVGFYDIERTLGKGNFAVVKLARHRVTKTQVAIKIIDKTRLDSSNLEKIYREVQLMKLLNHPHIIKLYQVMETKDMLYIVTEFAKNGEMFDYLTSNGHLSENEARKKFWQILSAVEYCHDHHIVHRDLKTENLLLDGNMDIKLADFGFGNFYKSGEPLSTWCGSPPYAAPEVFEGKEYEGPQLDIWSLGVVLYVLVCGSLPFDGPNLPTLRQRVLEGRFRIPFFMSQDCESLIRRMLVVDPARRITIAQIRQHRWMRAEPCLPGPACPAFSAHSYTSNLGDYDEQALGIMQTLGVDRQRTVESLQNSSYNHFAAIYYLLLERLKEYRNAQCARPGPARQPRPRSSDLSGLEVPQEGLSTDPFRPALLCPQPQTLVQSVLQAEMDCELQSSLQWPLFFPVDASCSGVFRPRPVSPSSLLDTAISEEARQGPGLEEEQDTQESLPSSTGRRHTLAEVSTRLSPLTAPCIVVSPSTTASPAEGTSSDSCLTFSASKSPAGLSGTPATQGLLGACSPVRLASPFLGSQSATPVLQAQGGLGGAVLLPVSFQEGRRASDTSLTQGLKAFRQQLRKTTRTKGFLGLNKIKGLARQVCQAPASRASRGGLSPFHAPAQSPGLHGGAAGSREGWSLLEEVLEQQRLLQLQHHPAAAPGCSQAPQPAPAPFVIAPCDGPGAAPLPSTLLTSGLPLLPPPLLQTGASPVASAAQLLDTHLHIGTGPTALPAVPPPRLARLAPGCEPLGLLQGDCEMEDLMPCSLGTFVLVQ
Experimental: as §1

CDC2L1 = CDC2L1 (Homo sapiens, UniProt P21127)
Sequence of CDC2L1 (P21127 whole entry): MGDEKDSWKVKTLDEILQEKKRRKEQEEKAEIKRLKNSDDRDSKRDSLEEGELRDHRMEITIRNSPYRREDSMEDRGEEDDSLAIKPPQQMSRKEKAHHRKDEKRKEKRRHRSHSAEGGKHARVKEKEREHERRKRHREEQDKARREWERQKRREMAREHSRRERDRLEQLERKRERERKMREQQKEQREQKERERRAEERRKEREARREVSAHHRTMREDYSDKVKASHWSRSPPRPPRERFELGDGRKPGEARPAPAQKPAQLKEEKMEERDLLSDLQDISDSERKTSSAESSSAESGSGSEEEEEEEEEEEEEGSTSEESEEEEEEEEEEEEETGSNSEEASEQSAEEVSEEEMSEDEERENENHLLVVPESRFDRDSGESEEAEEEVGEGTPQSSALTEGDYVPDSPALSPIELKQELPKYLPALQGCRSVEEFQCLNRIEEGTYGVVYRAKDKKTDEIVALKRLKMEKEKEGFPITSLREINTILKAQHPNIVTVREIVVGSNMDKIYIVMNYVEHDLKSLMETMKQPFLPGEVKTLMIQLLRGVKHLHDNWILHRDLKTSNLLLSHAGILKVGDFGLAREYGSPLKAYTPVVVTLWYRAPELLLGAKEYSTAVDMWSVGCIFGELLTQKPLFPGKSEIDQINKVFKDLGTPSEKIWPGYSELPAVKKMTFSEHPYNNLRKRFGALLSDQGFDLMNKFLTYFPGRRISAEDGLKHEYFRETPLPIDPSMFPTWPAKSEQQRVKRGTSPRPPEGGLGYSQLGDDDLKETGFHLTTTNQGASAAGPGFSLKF
Experimental: as §1

EPHA2 = EPHA2 (Homo sapiens, UniProt P29317)
Experimental: as §1

TGFBR2 = TGFBR2 (Homo sapiens, UniProt P37173)
Experimental: as §1

EPHA5 = EPHA5 (Homo sapiens, UniProt P54756)
Sequence of EPHA5 (P54756 25-1037): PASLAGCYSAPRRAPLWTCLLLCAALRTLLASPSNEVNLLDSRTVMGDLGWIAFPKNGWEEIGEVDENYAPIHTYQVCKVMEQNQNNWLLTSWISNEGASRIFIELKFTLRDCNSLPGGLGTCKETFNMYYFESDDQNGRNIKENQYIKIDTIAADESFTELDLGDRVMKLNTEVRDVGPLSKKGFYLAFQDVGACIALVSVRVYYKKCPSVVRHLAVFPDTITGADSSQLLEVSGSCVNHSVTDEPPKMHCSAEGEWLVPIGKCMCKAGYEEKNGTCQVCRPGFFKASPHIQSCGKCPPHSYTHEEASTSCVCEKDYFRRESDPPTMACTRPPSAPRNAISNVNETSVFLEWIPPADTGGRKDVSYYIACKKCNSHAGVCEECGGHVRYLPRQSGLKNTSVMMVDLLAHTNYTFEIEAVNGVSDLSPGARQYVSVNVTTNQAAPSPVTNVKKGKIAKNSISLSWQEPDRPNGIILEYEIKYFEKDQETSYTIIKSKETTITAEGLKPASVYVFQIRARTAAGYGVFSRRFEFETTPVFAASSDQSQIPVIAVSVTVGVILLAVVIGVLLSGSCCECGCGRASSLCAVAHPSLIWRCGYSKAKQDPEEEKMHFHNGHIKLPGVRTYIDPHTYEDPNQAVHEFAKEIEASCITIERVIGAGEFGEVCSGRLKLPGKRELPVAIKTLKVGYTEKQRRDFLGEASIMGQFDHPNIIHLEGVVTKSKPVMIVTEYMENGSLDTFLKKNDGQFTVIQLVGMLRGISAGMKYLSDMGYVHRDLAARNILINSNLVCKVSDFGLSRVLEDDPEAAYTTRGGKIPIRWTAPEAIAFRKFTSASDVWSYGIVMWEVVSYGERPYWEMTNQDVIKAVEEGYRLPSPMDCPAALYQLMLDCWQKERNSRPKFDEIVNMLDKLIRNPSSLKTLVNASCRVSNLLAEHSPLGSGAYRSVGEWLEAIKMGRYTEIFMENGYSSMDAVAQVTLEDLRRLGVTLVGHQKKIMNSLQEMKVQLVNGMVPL
Experimental: as §1

ERBB3 = ERBB3 (Homo sapiens, UniProt P21860)
Experimental: as §1

[4] = molecular target: ABL1(F317I)-phosphorylated (Homo sapiens, UniProt P00519, F317I)
Experimental: as §1

ROS1 = ROS1 (Homo sapiens, UniProt P08922)
Experimental: as §1

RIOK2 = RIOK2 (Homo sapiens, UniProt Q9BVS4)
Experimental: as §1

EGFR(L858R) = EGFR(L858R) (Homo sapiens, UniProt P00533, L858R)
Experimental: as §1

AURKA = AURKA (Homo sapiens, UniProt O14965)
Experimental: as §1

CAMK2G = CAMK2G (Homo sapiens, UniProt Q13555)
Experimental: as §1

JNK2 = JNK2 (Homo sapiens, UniProt P45984)
Sequence of JNK2 (P45984 whole entry): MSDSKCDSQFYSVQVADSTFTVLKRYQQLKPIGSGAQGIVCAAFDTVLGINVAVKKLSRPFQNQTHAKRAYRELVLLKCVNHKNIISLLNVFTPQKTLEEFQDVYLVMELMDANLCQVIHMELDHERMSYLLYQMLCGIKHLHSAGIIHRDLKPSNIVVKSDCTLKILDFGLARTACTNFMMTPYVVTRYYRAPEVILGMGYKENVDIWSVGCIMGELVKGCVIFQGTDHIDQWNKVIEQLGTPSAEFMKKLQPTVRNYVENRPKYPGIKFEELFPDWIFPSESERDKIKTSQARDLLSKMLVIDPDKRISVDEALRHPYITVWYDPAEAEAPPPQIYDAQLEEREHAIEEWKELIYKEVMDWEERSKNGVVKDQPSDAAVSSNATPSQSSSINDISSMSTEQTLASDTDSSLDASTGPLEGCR
Experimental: as §1

O=C1CCC(N2C(=O)c3cccc(NCCCCCCCCNC(=O)N4CC[C@H](NC5=Nc6cc(F)ccc6N(CC(F)F)c6ccc(Cl)cc65)C4)c3C2=O)C(=O)N1 (stereo partly drawn) [BJG-05-039, (3S)-3-((2-Chloro-5-(2,2-difluoroethyl)-8-fluoro-5H-dibenzo[b,e][1,4]diazepin-11-yl)amino)-N-(8-((2-(2,6-dioxopiperidin-3-yl)-1,3-dioxoisoindolin-4-yl)amino)octyl)pyrrolidine-1-carboxamide]
remaining binding at 10 µM (MST1R): 97% | remaining binding at 10 µM [1]: 87% | remaining binding at 10 µM (LCK): 91% | remaining binding at 10 µM (NIK): 76% | remaining binding at 10 µM (DAPK2): 41% | remaining binding at 10 µM [2]: 94% | remaining binding at 10 µM (MKNK2): 94% | remaining binding at 10 µM (PKN1): 95% | remaining binding at 10 µM (EGFR(G719C)): 83% | remaining binding at 10 µM (MST3): 52% | remaining binding at 10 µM [3]: 100% | remaining binding at 10 µM (MST1): 90% | remaining binding at 10 µM (HASPIN): 90% | remaining binding at 10 µM (PIP5K1A): 95% | remaining binding at 10 µM (TAOK3): 85% | remaining binding at 10 µM (MUSK): 60% | remaining binding at 10 µM (CDKL2): 77% | remaining binding at 10 µM (MEK6): 86% | remaining binding at 10 µM (JNK1): 83% | remaining binding at 10 µM (CDK4-cyclinD1): 90% | remaining binding at 10 µM (CAMK2B): 46% | remaining binding at 10 µM (SIK): 95% | remaining binding at 10 µM (CDC2L1): 53% | remaining binding at 10 µM (EPHA2): 82% | remaining binding at 10 µM (TGFBR2): 75% | remaining binding at 10 µM (EPHA5): 99% | remaining binding at 10 µM (ERBB3): 59% | remaining binding at 10 µM [4]: 100% | remaining binding at 10 µM (ROS1): 94% | remaining binding at 10 µM (RIOK2): 99% | remaining binding at 10 µM (EGFR(L858R)): 74% | remaining binding at 10 µM (AURKA): 100% | remaining binding at 10 µM (CAMK2G): 51% | remaining binding at 10 µM (JNK2): 84%
